We go through 26 molecules from patent US10858360B2, “Tricyclic gyrase inhibitors” (priority 2011, dated 2020).

For one assay, the system named is S. aureus ATCC 13709. Description: MIC, S. aureus ATCC 13709 (Alamar Blue broth microdilution). As to conditions: for MIC: Staphylococcus aureus, ATCC13709, S. aureus. The format is cell-based.
In another assay the test system is E. coli ATCC 25922. As to the kind of experiment: MIC, E. coli ATCC 25922. Particulars: for MIC: Escherichia coli, ATCC25922, E. coli. Format: cell-based.
The mark [1] stands for this setting: S. aureus, Alamar Blue read after overnight incubation at 35° C.
The mark [2] stands for this setting: E. coli, Alamar Blue read after overnight incubation at 35° C.
[3] abbreviates: Alamar Blue read after overnight incubation at 35° C.

The structures appear in SMILES notation. In brackets after ≈: the same amount, converted by molar mass. Read-outs that look alike come from different tables or passages of the source.

Consider `CNc1cc(F)cc2c1[nH]c1nc(Oc3cnc4[nH]cnc4c3)nc(N3C[C@H](N)C4(CC4)C3)c12` [4.313], for which, in the assay on S. aureus ATCC 13709 (setting [1]), the “MIC Sa” value is 8 µg/mL (≈ 17.4 µM). Besides, the “MIC Ec” value against E. coli ATCC 25922 (setting [2]) is greater than 16 µg/mL.
On to `CNc1cccc2c1[nH]c1nc(Sc3cnc4ccc[n+]([O-])c4c3)nc(N3CC4C(C3)C4NC(=O)[C@H](C)N)c12` (stereo partly shown) [1.52], for which the minimum inhibitory concentration (MIC) in the assay with S. aureus ATCC 13709 (setting [3]) was determined as 1 µg/mL (≈ 1.85 µM); against E. coli ATCC 25922 (setting [3]), 16 µg/mL (≈ 29.5 µM).
The matching figures for `CNc1cc(F)cc2c1[nH]c1nc(Oc3cncc(C)c3)nc(N3CC4CC(N)C4C3)c12` (stereo not shown) [4.303]: no more than 0.5 µg/mL and no more than 0.5 µg/mL.
As to `CNc1cc(F)cc2c1[nH]c1nc(Oc3cnc(C4CC4)nc3)nc(N3CC(N)C4(CC4)C3)c12` (stereo not shown) [4.242], the “MIC Sa” value in the assay with S. aureus ATCC 13709 (setting [1]) was no more than 0.5 µg/mL. In addition, the “MIC Ec” value with E. coli ATCC 25922 (setting [2]) is no more than 0.5 µg/mL.
For `CNc1cc(F)cc2c1[nH]c1nc(Oc3cnc4ccoc4c3)nc(N3CC4CCC(N)C4C3)c12` (stereo not shown) [4.293], in the assay on S. aureus ATCC 13709 (setting [1]), the “MIC Sa” value is no more than 0.5 µg/mL. Also, the “MIC Ec” value in the assay on E. coli ATCC 25922 (setting [2]) was found to be 1 µg/mL (≈ 2.11 µM).
On the same counts, the results for `CNc1cc(F)cc2c1[nH]c1nc(Oc3cnc(C)nc3)nc(N3CCNCC3)c12` [4.163] are no more than 0.5 µg/mL and no more than 0.5 µg/mL.
On the same counts, the results for `CNc1cc(F)cc2c1[nH]c1nc(Oc3cnc(C)nc3)nc(N3CC4CC(N)C3C4)c12` (stereo not shown) [4.154] are 2 µg/mL (≈ 4.6 µM) and 16 µg/mL (≈ 36.8 µM).
The matching figures for `CNc1cc(F)cc2c1[nH]c1nc(Oc3cnc(CCO)nc3)nc(N3CC4CC3C[C@@H]4N)c12` (stereo partly shown) [4.428]: no more than 0.5 µg/mL and 2 µg/mL (≈ 4.31 µM).
Consider `CNc1cc(F)cc2c1[nH]c1nc(Oc3cnc(CCO)nc3)nc(N3CC4C[C@@H](N)C4C3)c12` (stereo partly shown) [4.415], for which the results for the minimal inhibitory concentration (MIC) against S. aureus ATCC 13709 (setting [3]) and against E. coli ATCC 25922 (setting [3]) were no more than 0.5 µg/mL and 1 µg/mL (≈ 2.15 µM), respectively.
As for `CNc1cc(F)cc2c1[nH]c1nc(Oc3cnc(N4CCOCC4)nc3)nc(N3CC4C(N)C4C3)c12` (stereo not shown) [4.211], the “MIC Sa” value against S. aureus ATCC 13709 (setting [1]) was found to be 16 µg/mL (≈ 32.6 µM). For the same molecule, the “MIC Ec” value against E. coli ATCC 25922 (setting [2]) was greater than 16 µg/mL.
Regarding `CNc1cc(Cl)cc2c1[nH]c1nc(Oc3cnc4cccnc4c3)nc(N3CCCC4(CC4N)C3)c12` (stereo not shown) [6.14], the “MIC Sa” value against S. aureus ATCC 13709 is no more than 0.5 µg/mL. The “MIC Ec” value in the assay with E. coli ATCC 25922 is 1 µg/mL (≈ 2 µM).
`CNc1cccc2c1[nH]c1nc(Sc3ccc4ccc(C(=O)O)nc4c3)nc(N3CC4C(N)C4C3)c12` (stereo not shown) [1.74]: the MIC is 4 µg/mL (≈ 8.04 µM) in the assay with S. aureus ATCC 13709 (setting [3]) and greater than 64 µg/mL against E. coli ATCC 25922 (setting [3]).
For `CNc1cc(F)cc2c1[nH]c1nc(Oc3cnc(CC(=O)OC)nc3)nc(N3CC4C[C@@H](N)C4C3)c12` (stereo partly shown) [4.367], the MIC in the assay with S. aureus ATCC 13709 (setting [3]) and in the assay with E. coli ATCC 25922 (setting [3]) was no more than 0.5 µg/mL in each case.
Take `CNc1cc(F)c(C)c2c1[nH]c1nc(Oc3cnc(C)nc3)nc(N3CC4(CCC4N)C3)c12` (stereo not shown) [6.20]: the “MIC Sa” value in the assay on S. aureus ATCC 13709 stood at 4 µg/mL (≈ 8.92 µM). The “MIC Ec” value in the assay with E. coli ATCC 25922 was greater than 16 µg/mL.
Consider `CCNC(=O)c1cncc(Oc2nc(NCC)c3c(n2)[nH]c2c(NC)cc(F)cc23)c1` [4.384], for which, in the assay on S. aureus ATCC 13709 (setting [1]), the “MIC Sa” value was 1 µg/mL (≈ 2.36 µM). The “MIC Ec” value with E. coli ATCC 25922 (setting [2]) is greater than 16 µg/mL.
In the case of `CNc1cc(F)cc2c1[nH]c1nc(Oc3ccc(C#N)nc3)nc(N3C[C@H](N)C4(CC4)C3)c12` [4.329], the “MIC Sa” value against S. aureus ATCC 13709 (setting [1]) is no more than 0.5 µg/mL. Besides, the “MIC Ec” value in the assay with E. coli ATCC 25922 (setting [2]) is no more than 0.5 µg/mL.
With `Cc1ncc(Oc2nc(N3C[C@H](NC(=O)CN)C4(CC4)C3)c3c(n2)[nH]c2c(N(C)C(=O)CN)cc(F)cc23)cn1` [4.427], the MIC against S. aureus ATCC 13709 (setting [3]) and against E. coli ATCC 25922 (setting [3]) was greater than 16 µg/mL throughout.
As for `CNc1cc(F)cc2c1[nH]c1nc(Oc3cnc(N)nc3)nc(N3CC4C(N)C4C3)c12` (stereo not shown) [4.172], the MIC in the assay on S. aureus ATCC 13709 (setting [3]) and in the assay with E. coli ATCC 25922 (setting [3]) was no more than 0.5 µg/mL throughout.
`CNc1cc(F)cc2c1[nH]c1nc(Oc3ccc4c(c3)C(=O)NC43CC3)nc(N3CC4(CCC4N)C3)c12` (stereo not shown) [4.380]: in the assay with S. aureus ATCC 13709 (setting [1]), the “MIC Sa” value is 4 µg/mL (≈ 8.01 µM). Besides, the “MIC Ec” value against E. coli ATCC 25922 (setting [2]) turned out to be 16 µg/mL (≈ 32 µM).
On the same counts, the results for `CNc1cc(F)cc2c1[nH]c1nc(Oc3cnc(C)nc3)nc(N3CCNC4(CC4)C3)c12` [4.132] are no more than 0.5 µg/mL and 2 µg/mL (≈ 4.6 µM).
For `CNc1cc(F)cc2c1[nH]c1nc(Oc3cnc(C)nc3)nc(N3CC(NC(=O)CNC(=O)C(N)CO)C4(CC4)C3)c12` (stereo not shown) [4.127], the “MIC Sa” value against S. aureus ATCC 13709 (setting [1]) came out at 8 µg/mL (≈ 13.8 µM). In the assay with E. coli ATCC 25922 (setting [2]), the “MIC Ec” value was greater than 16 µg/mL.
Regarding `CNc1cccc2c1[nH]c1nc(Oc3cnc(N)nc3)nc(N3CC4C(N)C4C3)c12` (stereo not shown) [3.32], the figures for the MIC in the assay on S. aureus ATCC 13709 (setting [3]) and with E. coli ATCC 25922 (setting [3]) were no more than 0.5 µg/mL and 2 µg/mL (≈ 4.96 µM), respectively.
On to `CNc1cc(F)cc2c1[nH]c1nc(Oc3cnc4cccnc4c3)nc(N3CC4CC[C@@H](N)[C@H]4C3)c12` (stereo partly shown) [4.047], for which the MIC in the assay on S. aureus ATCC 13709 (setting [3]) and in the assay on E. coli ATCC 25922 (setting [3]) was no more than 0.5 µg/mL throughout.
In the case of `CNc1ccc(C)c2c1[nH]c1nc(Sc3cnc4ccc[n+]([O-])c4c3)nc(N3CC(N)C4(CC4)C3)c12` (stereo not shown) [1.72], the MIC was no more than 0.5 µg/mL against S. aureus ATCC 13709 (setting [3]) and 1 µg/mL (≈ 2.01 µM) with E. coli ATCC 25922 (setting [3]).
As to `CNc1cc(F)cc2c1[nH]c1nc(Oc3cnc(C)nc3)nc(N3CC4CC3CC4N)c12` (stereo not shown) [4.130], in the assay on S. aureus ATCC 13709 (setting [1]), the “MIC Sa” value is no more than 0.5 µg/mL. Also, the “MIC Ec” value in the assay with E. coli ATCC 25922 (setting [2]) is no more than 0.5 µg/mL.
Turning to `CNc1cc(F)cc2c1[nH]c1nc(Oc3cnc(C(C)(C)C)nc3)nc(N3CC4C(N)C4C3)c12` (stereo not shown) [4.314], the MIC against S. aureus ATCC 13709 (setting [3]) and against E. coli ATCC 25922 (setting [3]) was no more than 0.5 µg/mL in each case.
